Experimental data: PubChem BioAssay (NCI)
Where “and” joins values, the source holds several entries; their conditions need not be identical. Identical values can stand only once.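 Results reflect a 48-hour exposure of cells in 96-well plates to compound at five concentrations. The concentration for 50% growth inhibition is given as GI50. TGI: total growth inhibition.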

Assays:
Assay in all cases: NCI-60 cell line screen, 48 h
HT29 colon = tested on: HT29 colon
SF-295 CNS = tested on: SF-295 CNS
HCC-2998 colon = tested on: HCC-2998 colon
SF-268 CNS = tested on: SF-268 CNS
K-562 leukemia = tested on: K-562 leukemia
HOP-92 NSCLC = tested on: HOP-92 NSCLC
NCI-H23 lung = tested on: NCI-H23 lung
786-0 renal = tested on: 786-0 renal
A549 NSCLC = tested on: A549 NSCLC
MCF7 breast = tested on: MCF7 breast

Structure (SMILES) | TGI (HT29 colon) | TGI (SF-295 CNS) | TGI (HCC-2998 colon) | TGI (SF-268 CNS) [µM] | TGI (K-562 leukemia) [µM] | TGI (HOP-92 NSCLC) | TGI (NCI-H23 lung) | TGI (786-0 renal) [µM] | TGI (A549 NSCLC) | GI50 (786-0 renal) [µM] | TGI (MCF7 breast) [µM] | GI50 (HT29 colon) [µM] | GI50 (SF-295 CNS) [µM] | GI50 (SF-268 CNS) [µM] | GI50 (K-562 leukemia) [µM] | GI50 (MCF7 breast) [µM] | GI50 (NCI-H23 lung) [µM] | GI50 (A549 NSCLC) [µM] | GI50 (HCC-2998 colon) [µM] | GI50 (HOP-92 NSCLC) [µM]
CCNCC(=O)O[C@]1(CC)C(=O)OCc2c1cc1n(c2=O)Cc2cc3ccccc3nc2-1 | > 32.9 µM | 4.66 µM | 6.88 µM | > 100 | > 100 | 13.8 µM | 0.879 µM | 1.05 | 13.5 µM | – | – | – | – | – | – | – | – | – | – | –
CC[C@H]1CN2CCc3cc(OC)c(OC)cc3[C@@H]2C[C@@H]1C[C@H]1NCCc2cc(O)c(OC)cc21 | 0.0551 µM and 0.0171 µM and 0.047 µM | 0.0674 µM and 0.0385 µM and 0.153 µM | 0.0484 µM and 0.0472 µM | – | 2.65 | 0.0742 µM and < 0.0176 µM | 0.0584 µM and 0.115 µM | 0.0381 | 0.0652 µM and 0.0527 µM and 0.355 µM | 0.00714 | – | – | – | – | – | – | – | – | – | –
CCn1cc(/C=C/C(C)c2cn(CC)c(=O)[nH]c2=O)c(=O)[nH]c1=O (configuration not stated) | > 100 µM | > 100 µM | > 100 µM | > 100 | > 100 | > 100 µM | > 100 µM | > 100 | > 100 µM | – | – | – | – | – | – | – | – | – | – | –
CC1=CC(=O)CCC2(C)C1CC[C@@H]2OC=O (some centres not stated) | > 100 µM | > 100 µM | > 100 µM | > 100 | > 100 | > 100 µM | > 100 µM | > 100 | > 100 µM | – | – | – | – | – | – | – | – | – | – | –
CCSCC(N)C(=O)O (configuration not stated) | > 100 µM | > 100 µM | – | > 100 | – | > 100 µM | > 100 µM | > 100 | > 100 µM | – | > 100 | – | – | – | – | – | – | – | – | –
COC(=O)c1ccc2c(c1)nc(-c1cc3ccccc3[nH]c1=O)n2-c1cc(C(C)(C)C)[nH]n1 | > 100 µM | > 50.5 µM | – | > 95.9 | > 100 | – | > 100 µM | > 100 | > 100 µM | 3.79 | > 100 | 1.34 | 2.14 | 2.24 | 1.7 | > 100 | 2.64 | > 100 | – | –
COc1ccc(/C(=N/NC(=O)NN)C(c2ccc(OC)cc2)C2(O)CNc3c(Cl)cc(Cl)cc32)cc1 (configuration not stated) | > 100 µM | > 100 µM | > 100 µM | > 100 | > 100 | > 100 µM | > 100 µM | > 100 | > 100 µM | – | – | – | – | – | – | – | – | – | – | –
C=C/C=C(\NC(=O)C(Cl)(Cl)Cl)[Si](C)(C)C | > 100 µM | > 100 µM | > 100 µM | > 100 | > 100 | > 100 µM | > 100 µM | > 100 | > 100 µM | – | – | – | – | – | – | – | – | – | – | –
COC1(OC)CC2C=C(S(=O)(=O)c3ccccc3)C1N(Cc1ccccc1)C2=O (configuration not stated) | 93.7 µM | > 100 µM | > 100 µM | > 100 | > 100 | 95.5 µM | 40.5 µM | > 100 | > 100 µM | – | – | – | – | – | – | – | – | – | – | –
CC(=O)C1CC=C(C)CC1 (configuration not stated) | > 100 µM | > 100 µM | > 100 µM | > 100 | > 100 | > 100 µM | > 100 µM | > 100 | > 100 µM | – | – | – | – | – | – | – | – | – | – | –
COC1=CC(O)(CC(N)=O)c2ccccc2C1=O (configuration not stated) | > 100 µM | > 100 µM | > 100 µM | > 100 | > 100 | > 100 µM | – | > 100 | > 100 µM | – | – | – | – | – | – | – | – | – | – | –
O=C(OCc1ccccc1)N1CCN(/[N+]([O-])=N/Oc2ccc([N+](=O)[O-])cc2[N+](=O)[O-])CC1 | > 100 µM | 49.4 µM | – | 23.9 | > 100 | – | 44.8 µM | 6.97 | 56 µM | 2.45 | 8.87 | 10.4 | 21.5 | 6.28 | 4.07 | 2.84 | 6.45 | 21.5 | – | –
CC1C[C@H](OC(N)=O)C(C)CC1=O (some centres not stated) | > 100 µM | > 100 µM | > 100 µM | > 100 | > 100 | > 100 µM | > 100 µM | > 100 | > 100 µM | – | – | – | – | – | – | – | – | – | – | –
CCC[CH2][Sn]([CH2]CCC)([O]C(=O)c1cc(F)cc(F)c1)[O]C(=O)c1cc(F)cc(F)c1 | 3.06 µM | 2.62 µM | 2 µM | 2.34 | 0.965 | 2.49 µM | 2 µM | 2.49 | 20.4 µM | 1.25 | – | 1.65 | 1.34 | 1.09 | 0.228 | – | 0.7 | 7.13 | 0.242 | 1.24
NC(=O)C1=NNc2ccccc2C(=O)N1c1ccccc1 | > 100 µM | > 100 µM | – | > 100 | – | – | – | > 100 | > 100 µM | – | > 100 | – | – | – | – | – | – | – | – | –
Cc1cc(N(CCC#N)S(C)(=O)=O)ccc1C=O | > 100 µM | > 100 µM | > 100 µM | > 100 | > 100 | – | > 100 µM | > 100 | > 100 µM | – | – | – | – | – | – | – | – | – | – | –
Brc1ccc(-c2nnc(-c3nn(-c4ccccc4)c4nc5ccccc5nc34)o2)cc1 | > 100 µM | > 100 µM | > 100 µM | > 100 | > 100 | > 100 µM | > 100 µM | > 100 | > 100 µM | – | – | – | – | – | – | – | – | – | – | –
N#CC(C(=O)/C(=N\Nc1nc(=S)[nH]n1N)C(C#N)c1ccc(Cl)cc1)c1ccc(Cl)cc1 (configuration not stated) | > 100 µM | > 100 µM | > 100 µM | > 100 | – | > 100 µM | > 100 µM | > 100 | > 100 µM | – | – | – | – | – | – | – | – | – | – | –
O=C(CO)CC(=O)C(=O)Nc1nc([N+](=O)[O-])cs1 | > 100 µM | > 100 µM | > 100 µM | > 100 | > 100 | – | > 100 µM | > 100 | > 100 µM | – | – | – | – | – | – | – | – | – | – | –
O=S(O)CCCCCSSCCCCSSCCCCCS(=O)O | > 100 µM | > 100 µM | – | > 100 | > 100 | > 100 µM | > 100 µM | > 100 | > 100 µM | – | – | – | – | – | – | – | – | – | – | –
CC(=O)N1CC(Nc2ccc(OC(F)(F)F)cc2)=CC1=O | 28.6 µM | > 100 µM | 53.2 µM | > 100 | > 100 | – | > 100 µM | > 100 | > 100 µM | 3.27 | > 100 | 0.482 | 2.86 | 14.4 | 0.526 | 0.436 | 4.93 | 2.01 | 3.22 | –
